For one assay, the target named is T1, FLT-3 (Homo sapiens, UniProt P36888).
T1 construct: 0.02% BSA and 3 nM FLT-3
T1 sequence (P36888 27-993): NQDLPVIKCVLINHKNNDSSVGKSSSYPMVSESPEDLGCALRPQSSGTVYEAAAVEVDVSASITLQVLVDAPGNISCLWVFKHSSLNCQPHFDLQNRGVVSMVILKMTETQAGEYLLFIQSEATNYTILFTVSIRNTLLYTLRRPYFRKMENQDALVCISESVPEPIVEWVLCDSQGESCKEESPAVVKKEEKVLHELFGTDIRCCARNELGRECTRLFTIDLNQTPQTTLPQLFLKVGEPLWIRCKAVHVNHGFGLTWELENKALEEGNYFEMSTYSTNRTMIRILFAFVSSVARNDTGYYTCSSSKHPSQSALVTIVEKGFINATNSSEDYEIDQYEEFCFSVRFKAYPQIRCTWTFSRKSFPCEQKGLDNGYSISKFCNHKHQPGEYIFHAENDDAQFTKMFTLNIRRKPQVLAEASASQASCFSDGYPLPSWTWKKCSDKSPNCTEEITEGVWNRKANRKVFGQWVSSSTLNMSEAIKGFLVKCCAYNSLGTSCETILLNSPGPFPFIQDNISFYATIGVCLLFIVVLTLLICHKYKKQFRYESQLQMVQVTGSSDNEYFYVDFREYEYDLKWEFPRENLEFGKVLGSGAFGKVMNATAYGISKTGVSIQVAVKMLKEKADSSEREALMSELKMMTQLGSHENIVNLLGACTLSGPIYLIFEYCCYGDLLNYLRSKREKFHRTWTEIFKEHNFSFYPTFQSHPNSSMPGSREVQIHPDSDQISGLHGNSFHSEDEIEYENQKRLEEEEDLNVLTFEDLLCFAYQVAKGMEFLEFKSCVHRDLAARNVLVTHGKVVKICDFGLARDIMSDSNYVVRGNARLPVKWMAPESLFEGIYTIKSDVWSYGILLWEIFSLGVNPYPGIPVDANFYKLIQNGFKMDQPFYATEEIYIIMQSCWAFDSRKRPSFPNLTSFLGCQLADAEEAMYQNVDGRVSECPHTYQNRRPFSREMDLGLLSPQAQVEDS
The assay is described as follows: Inhibition of FLT-3, radiometric filter-binding assay. Type of assay: biochemical. The conditions noted are these: 90 μM ATP, 0.5 mg/mL pE4Y, room temperature. The method, boiled down: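 Radiometric filter-binding assay of FLT-3 (3 nM in Solution 2; final conc not stated) phosphorylating poly(Glu,Tyr) 4:1 (0.5 mg/mL) with 90 μM ATP plus [γ-33P]ATP, in HEPES pH 7.5, MgCl2, NaCl, DTT, BSA, 2.5% DMSO. 12-point titration, typically 0.01–5 μM, 20 min at room temperature; TCA-stopped, filtered, scintillation-counted; IC50 or Ki fitted.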

The target in a further assay is c-Met (Homo sapiens, UniProt P08581). The assay is described as follows: Ki determination for the inhibition of c-Met, coupled enzyme system. Type of assay: biochemical. To be noted: 200 μM ATP, 10 μM polyGluTyr, 80 nM c-Met, 30° C. An outline of the steps:
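Coupled pyruvate kinase/lactate dehydrogenase NADH assay with 80 nM c-Met, 200 μM ATP, 10 μM polyGluTyr in pH 7.5 HEPES, 1.5% DMSO at 30° C. Compound (0.006–12.5 μM final, 12-point) preincubated 10 min; ATP started reaction, rates read over 10 min; Ki derived from rate versus inhibitor concentration.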

Chain of c-Met (P08581 25-1390): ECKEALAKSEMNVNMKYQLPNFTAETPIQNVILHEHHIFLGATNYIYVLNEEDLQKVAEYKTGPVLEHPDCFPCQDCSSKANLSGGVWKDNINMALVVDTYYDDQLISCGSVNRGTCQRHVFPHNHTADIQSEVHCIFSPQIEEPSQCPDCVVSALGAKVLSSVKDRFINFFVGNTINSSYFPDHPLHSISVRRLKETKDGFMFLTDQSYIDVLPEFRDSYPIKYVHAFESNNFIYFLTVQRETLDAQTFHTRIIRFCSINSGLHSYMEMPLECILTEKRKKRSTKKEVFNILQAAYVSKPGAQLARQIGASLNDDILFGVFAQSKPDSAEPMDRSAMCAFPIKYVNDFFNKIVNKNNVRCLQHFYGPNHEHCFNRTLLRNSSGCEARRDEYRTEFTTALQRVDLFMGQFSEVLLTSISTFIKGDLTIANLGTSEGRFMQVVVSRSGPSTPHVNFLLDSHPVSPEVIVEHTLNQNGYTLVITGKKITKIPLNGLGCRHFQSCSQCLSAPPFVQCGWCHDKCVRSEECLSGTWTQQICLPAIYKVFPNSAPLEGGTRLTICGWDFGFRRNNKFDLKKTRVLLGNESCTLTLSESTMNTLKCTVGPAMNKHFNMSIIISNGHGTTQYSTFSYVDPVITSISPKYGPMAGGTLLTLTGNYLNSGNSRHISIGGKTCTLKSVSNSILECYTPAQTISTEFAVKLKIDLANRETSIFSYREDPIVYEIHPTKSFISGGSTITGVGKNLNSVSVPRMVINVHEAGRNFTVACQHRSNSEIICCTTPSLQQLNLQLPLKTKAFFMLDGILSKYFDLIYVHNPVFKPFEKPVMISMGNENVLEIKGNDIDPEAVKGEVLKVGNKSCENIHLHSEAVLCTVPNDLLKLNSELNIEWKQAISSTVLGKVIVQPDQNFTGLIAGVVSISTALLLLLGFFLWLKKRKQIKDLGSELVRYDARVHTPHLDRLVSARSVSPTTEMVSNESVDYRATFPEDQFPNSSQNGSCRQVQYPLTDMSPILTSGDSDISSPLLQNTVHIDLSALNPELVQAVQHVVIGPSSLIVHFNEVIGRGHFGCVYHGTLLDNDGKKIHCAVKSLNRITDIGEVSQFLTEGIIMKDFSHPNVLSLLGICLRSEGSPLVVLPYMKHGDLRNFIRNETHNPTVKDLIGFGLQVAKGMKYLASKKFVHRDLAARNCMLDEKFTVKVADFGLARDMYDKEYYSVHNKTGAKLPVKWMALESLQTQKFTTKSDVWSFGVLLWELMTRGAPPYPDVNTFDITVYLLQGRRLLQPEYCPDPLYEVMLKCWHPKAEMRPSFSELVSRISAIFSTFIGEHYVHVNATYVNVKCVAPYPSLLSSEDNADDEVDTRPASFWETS

As for `CN(C)Cc1ccc(-c2cnc3[nH]cc(-c4oncc4-c4cccc(F)c4F)c3c2)nc1` [Compound 84, (6-{3-[4-(2,3-Difluoro-phenyl)-isoxazol-5-yl]-1H-pyrrolo[2,3-b]pyridin-5-yl}-pyridin-3-ylmethyl)-dimethyl-amine], the Ki at FLT-3 and at c-Met was under 0.2 µM in each case.

Regarding `CN1CCN(c2ccc(-c3cnc4[nH]cc(-c5nncn5-c5cccc(F)c5F)c4c3)cn2)CC1` [Compound 112], the Ki (in general, the equilibrium dissociation constant of an inhibitor or competing ligand from its target) is 0.2 to 1 µM on FLT-3 and under 0.2 µM on c-Met.

For the molecule `OC1CCN(c2ccc(-c3cnc4[nH]cc(-c5nncn5-c5cccc(F)c5F)c4c3)cn2)CC1` [Compound 116, 5′-{3-[4-(2,3-Difluoro-phenyl)-4H-[1,2,4]triazol-3-yl]-1H-pyrrolo[2,3-b]pyridin-5-yl}-3,4,5,6-tetrahydro-2H-[1,2′]bi-pyridinyl-4-ol], the Ki at FLT-3 is 0.2 to 1 µM; at c-Met it was under 0.2 µM.

In the case of `CS(=O)(=O)NC1CC=C(c2cnc3[nH]cc(-c4oncc4-c4cccc(F)c4F)c3c2)CC1` (centres unmarked) [Compound 140, N-(4-{3-[4-(2,3-Difluoro-phenyl)-isoxazol-5-yl]-1H-pyrrolo[2,3-b]pyridin-5-yl}-cyclohex-3-enyl)-methanesulfonamide], the Ki on FLT-3 and on c-Met was under 0.2 µM throughout.

In the case of `Clc1cccc(-c2cnoc2-c2c[nH]c3ncccc23)c1Cl` [Compound 2, 3-[4-(2,3-Dichloro-phenyl)-isoxazol-5-yl]-1H-pyrrolo[2,3-b]pyridine], the Ki was 1 to 12.5 µM on FLT-3 and under 0.2 µM at c-Met.

Consider `Oc1cnc2[nH]cc(-c3oncc3-c3cccc(Cl)c3Cl)c2c1` [Compound 48, 3-[4-(2,3-Dichloro-phenyl)-isoxazol-5-yl]-1H-pyrrolo[2,3-b]pyridin-5-ol], for which the inhibition constant (Ki) on FLT-3 is 0.2 to 1 µM; at c-Met, under 0.2 µM.

`CN(C)c1ccnc(-c2cnc3[nH]cc(-c4oncc4-c4cccc(F)c4F)c3c2)c1` [Compound 80, (2-{3-[4-(2,3-Difluoro-phenyl)-isoxazol-5-yl]-1H-pyrrolo[2,3-b]pyridin-5-yl}-pyridin-4-yl)-dimethyl-amine]: the Ki at FLT-3 and on c-Met was 1 to 12.5 µM each time.

Take `Nc1cccc(-c2cnc3[nH]cc(-c4oncc4-c4cccc(F)c4F)c3c2)c1` [Compound 86, 3-{3-[4-(2,3-Difluoro-phenyl)-isoxazol-5-yl]-1H-pyrrolo [2,3-b]pyridin-5-yl}-phenylamine]: the Ki on FLT-3 and on c-Met was under 0.2 µM in each case.

For the molecule `CN(C)CC#Cc1cnc2[nH]cc(-c3oncc3-c3cccc(F)c3F)c2c1` [Compound 53, (3-{3-[4-(2,3-Difluoro-phenyl)-isoxazol-5-yl]-1H-pyrrolo[2,3-b]pyridin-5-yl}-prop-2-ynyl)-dimethyl-amine], the Ki on FLT-3 was 0.2 to 1 µM; at c-Met, under 0.2 µM.

Regarding `CN1CCN(c2ccc(-c3cnc4[nH]cc(-c5nncn5-c5cccc(F)c5F)c4c3)cc2)CC1` [Compound 110, 3-[4-(2,3-Difluoro-phenyl)-4H-[1,2,4]triazol-3-yl]-5-[4-(4-methyl-piperazin-1-yl)-phenyl]-1H-pyrrolo[2,3-b]pyridine], the Ki is 0.2 to 1 µM at FLT-3 and under 0.2 µM on c-Met.

As for `COc1cncc(-c2cnc3[nH]cc(-c4oncc4-c4cccc(F)c4F)c3c2)c1` [Compound 96, 3-[4-(2,3-Difluoro-phenyl)-isoxazol-5-yl]-5-(5-methoxy-pyridin-3-yl)-1H-pyrrolo[2,3-b]pyridine], the Ki at FLT-3 was 0.2 to 1 µM; at c-Met it was under 0.2 µM.

For the molecule `Fc1cccc(-c2cnoc2-c2c[nH]c3ncc(-c4cccnc4)cc23)c1F` [Compound 59, 3-[4-(2,3-Difluoro-phenyl)-isoxazol-5-yl]-5-pyridin-3-yl-1H-pyrrolo[2,3-b]pyridine], the Ki at FLT-3 and on c-Met was under 0.2 µM each time.

As for `Nc1ccc(-c2cnc3[nH]cc(-c4oncc4-c4cccc(F)c4F)c3c2)cc1` [Compound 90, 4-{3-[4-(2,3-Difluoro-phenyl)-isoxazol-5-yl]-1H-pyrrolo [2,3-b]pyridin-5-yl}-phenylamine], the Ki on FLT-3 and on c-Met was under 0.2 µM each time.

With `Fc1cccc(-c2cnoc2-c2c[nH]c3ncc(-c4ccc(CN5CCOCC5)cc4)cc23)c1F` [Compound 92, 3-[4-(2,3-Difluoro-phenyl)-isoxazol-5-yl]-5-(4-morpholin-4-ylmethyl-phenyl)-1H-pyrrolo[2,3-b]pyridine], the Ki at FLT-3 and at c-Met was under 0.2 µM throughout.

With `CN1CCN(Cc2ccc(-c3cnc4[nH]cc(-c5oncc5-c5cccc(F)c5F)c4c3)cc2)CC1` [Compound 94, 3-[4-(2,3-Difluoro-phenyl)-isoxazol-5-yl]-5-[4-(4-methyl-piperazin-1-ylmethyl)-phenyl]-1H-pyrrolo[2,3-b]pyridine], the Ki on FLT-3 and on c-Met was under 0.2 µM in each case.

`Fc1cccc(-c2cnoc2-c2c[nH]c3ncc(C4=CCC(NCc5ccccc5)CC4)cc23)c1F` (centres unmarked) [Compound 136, Benzyl-(4-{3-[4-(2,3-difluoro-phenyl)-isoxazol-5-yl]-1H-pyrrolo[2,3-b]pyridin-5-yl}-cyclohex-3-enyl)-amine]: the Ki on FLT-3 is 0.2 to 1 µM; on c-Met it was under 0.2 µM.

On to `COc1ccnc(-c2cnc3[nH]cc(-c4oncc4-c4cccc(F)c4F)c3c2)c1` [Compound 78, 3-[4-(2,3-Difluoro-phenyl)-isoxazol-5-yl]-5-(4-methoxy-pyridin-2-yl)-1H-pyrrolo[2,3-b]pyridine], for which the figures for the Ki on FLT-3 and on c-Met were 0.2 to 1 µM and under 0.2 µM, respectively.

Regarding `Fc1cccc(-c2cnoc2-c2c[nH]c3ncc(-c4ccc(CN5CCCC5)cc4)cc23)c1F` [Compound 93, 3-[4-(2,3-Difluoro-phenyl)-isoxazol-5-yl]-5-(4-pyrrolidin-1-ylmethyl-phenyl)-1H-pyrrolo[2,3-b]pyridine], the inhibition constant (Ki) at FLT-3 and on c-Met was under 0.2 µM in each case.

As to `CC(=O)Nc1cccc(-c2cnc3[nH]cc(-c4oncc4-c4cccc(F)c4F)c3c2)c1` [Compound 65, N-(3-{3-[4-(2,3-Difluoro-phenyl)-isoxazol-5-yl]-1H-pyrrolo[2,3-b]pyridin-5-yl}-phenyl)-acetamide], the Ki at FLT-3 and at c-Met was under 0.2 µM each time.

In the case of `CN(C)c1cccc(-c2cnc3[nH]cc(-c4oncc4-c4cccc(F)c4F)c3c2)c1` [Compound 61, (3-{3-[4-(2,3-Difluoro-phenyl)-isoxazol-5-yl]-1H-pyrrolo[2,3-b]pyridin-5-yl}-phenyl)-dimethyl-amine], the values for the inhibition constant (Ki) on FLT-3 and on c-Met were 0.2 to 1 µM and under 0.2 µM, respectively.

Consider `Fc1cccc(-n2cnnc2-c2c[nH]c3ncc(-c4ccc(CN5CCOCC5)cc4)cc23)c1F` [Compound 109, 3-[4-(2,3-Difluoro-phenyl)-4H-[1,2,4]triazol-3-yl]-5-(4-morpholin-4-ylmethyl-phenyl)-1H-pyrrolo[2,3-b]pyridine], for which the figures for the Ki on FLT-3 and on c-Met were 0.2 to 1 µM and under 0.2 µM, respectively.

`Cn1ccc2c(-c3oncc3-c3cccc(F)c3F)c[nH]c2c1=O` [Compound 144, 3-[4-(2,3-Difluoro-phenyl)-isoxazol-5-yl]-6-methyl-1,6-dihydro-pyrrolo[2,3-c]pyridin-7-one]: the Ki at FLT-3 lay within 1 to 12.5 µM; on c-Met, 0.2 to 1 µM.

With `CC(=O)Nc1ccc(-c2cnc3[nH]cc(-c4oncc4-c4cccc(F)c4F)c3c2)cc1` [Compound 95, N-(4-{3-[4-(2,3-Difluoro-phenyl)-isoxazol-5-yl]-1H-pyrrolo[2,3-b]pyridin-5-yl}-phenyl)-acetamide], the Ki on FLT-3 and at c-Met was under 0.2 µM each time.

`Fc1cccc(Cc2cnoc2-c2c[nH]c3ncccc23)c1F` [Compound 36, 3-[4-(2,3-Difluoro-benzyl)-isoxazol-5-yl]-1H-pyrrolo[2,3-b]pyridine]: the Ki on FLT-3 and on c-Met was 1 to 12.5 µM throughout.

For the molecule `Fc1cccc(-c2cnoc2-c2c[nH]c3ncc(/C=C/n4cncn4)cc23)c1F` [Compound 133, 3-[4-(2,3-Difluoro-phenyl)-isoxazol-5-yl]-5-(2-[1,2,4]triazol-1-yl-vinyl)-1H-pyrrolo[2,3-b]pyridine], the Ki on FLT-3 and at c-Met was under 0.2 µM each time.

The values are drawn from patent publication US7446199B2, “Compositions useful as inhibitors of protein kinases” (Vertex Pharmaceuticals Incorporated, priority 2003, dated 2008).
